For orientation: MIC means the lowest concentration found to suppress growth. Read a high MIC as a less susceptible organism.

MIC data for four molecules are collected here from DBAASP.

The structures appear in SMILES notation. ≈ marks a conversion by molar mass, not a printed value. A value given as a limit tells only on which side of the number the result lay.

Some test systems named below: Pseudomonas aeruginosa 9; Bacillus cereus AS1.126; Bacillus cereus; Escherichia coli AS1.349; Escherichia coli; Lactococcus lactis; Staphylococcus aureus; Salmonella typhimurium.
What all share (assay): ≥ marks a high value that may be exact or a test limit, other limits are often not marked, values filed in µg/mL are converted to µM
The subject of test [1] is Enterobacter cloacae 218R.
Test [2] concerns Enterococcus faecalis ATCC 29212.
Test [3] concerns Enterococcus faecalis W61950.
Test [4] concerns Enterococcus faecalis f43559.
Test [5] concerns Enterococcus faecium mic80.
Test [6] deals with Enterococcus faecium t62764.
For test [7], the system named is Escherichia coli ESBL 63103.
Test [8] concerns Escherichia coli ESBL 64771.
Test [9] relates to Klebsiella pneumoniae ESBL 61962.
Test [10] has as its system Klebsiella pneumoniae ESBL 63575.
Test [11] deals with Pseudomonas aeruginosa 198.
Test [12] deals with Pseudomonas aeruginosa 213.
Test [13] has as its system Pseudomonas aeruginosa H1027.
Test [14] has as its system Pseudomonas aeruginosa H1030.
Test [15] deals with Pseudomonas aeruginosa LES400.
Test [16] has as its system Pseudomonas aeruginosa PAO1 H103.
For test [17], the system named is Staphylococcus aureus ATCC 25923.
Test [18] has as its system Staphylococcus aureus C623.
In test [19] the test system is Stenotrophomonas maltophilia ATCC 13637.
Test [20] concerns Candida albicans CMCC 98001.
Test [21] deals with Enterobacter cloacae CGMCC 1.58.
The subject of test [22] is Enterococcus faecalis CGMCC 1.595.
The subject of test [23] is Enterococcus faecium CGMCC 1.2334.
For test [24], the system named is Escherichia coli ATCC 11775.
In test [25] the test system is Fusobacterium nucleatum CGMCC 1.2526.
The subject of test [26] is Klebsiella aerogenes CGMCC 1.876.
Test [27] has as its system Klebsiella pneumoniae subsp. pneumoniae CGMCC 1.176.
Test [28] concerns Lactobacillus acidophilus CGMCC 1.1854.
The test system of test [29] is Lactococcus lactis AS1.1690.
For test [30], the system named is Pseudomonas aeruginosa CGMCC 1.860.
The subject of test [31] is Staphylococcus aureus AS1.72.
Test [32] deals with Staphylococcus aureus ATCC 12600.
Test [33] relates to Streptococcus mutans CGMCC 1.2500.
For test [34], the system named is Streptococcus salivarius CGMCC 1.2498.
In test [35] the test system is Streptococcus sanguinis CGMCC 1.2497.
Test [36] relates to Aeromonas salmonicida NCIMB 1102.
The subject of test [37] is Bacillus subtilis IAM 1026.
Test [38] relates to Escherichia coli JCM 1649.
Test [39] concerns Photobacterium damselae subsp. piscicida Sp 9587.
For test [40], the system named is Shewanella putrefaciens IAM 1509.
For test [41], the system named is Staphylococcus aureus IAM 1011.
Test [42] has as its system Vibrio anguillarum NCIMB 829.
The test system of test [43] is Vibrio parahaemolyticus Vp+1.
The subject of test [44] is Escherichia coli PCM 2057.
The subject of test [45] is Staphylococcus aureus PCM 1944.

In the case of `CC(C)[C@H](NC(=O)[C@H](CCCN=C(N)N)NC(=O)[C@H](CCCCN)NC(=O)[C@@H](NC(=O)[C@H](Cc1ccccc1)NC(=O)[C@H](CCCCN)NC(=O)[C@H](Cc1c[nH]c2ccccc12)NC(=O)[C@@H](NC(=O)[C@H](C)N)C(C)C)C(C)C)C(=O)O` [AVWKFVKRV], the MIC was ≥ 186 µM in test [1]; > 186 µM in [2]; ≥ 186 µM in test [3]; ≥ 186 µM in test [4]; ≥ 93.6 µM in [5]; ≥ 93.6 µM in test [6]. The MIC was ≥ 186 µM in test [7]; ≥ 93.6 µM in test [8]; ≥ 186 µM in [9]; ≥ 186 µM in [10]; ≥ 186 µM in test [11]; ≥ 186 µM in test [12]. For the same molecule, the MIC is ≥ 186 µM in the test on Pseudomonas aeruginosa 9; ≥ 93.6 µM in test [13]; ≥ 186 µM in [14]; ≥ 186 µM in test [15]; ≥ 186 µM in test [16]; 186 µM (≈ 211 µg/mL) in test [17]. Also, the minimal inhibitory concentration (MIC) in test [18] was ≥ 186 µM; in test [19] it was ≥ 46.8 µM.
For `CC[C@H](C)[C@H](N)C(=O)N[C@@H](CC(C)C)C(=O)N1CCC[C@H]1C(=O)N[C@H](C(=O)N[C@@H](CC(C)C)C(=O)N[C@@H](CO)C(=O)N[C@@H](CC(C)C)C(=O)N[C@H](C(=O)NCC(=O)NCC(=O)N[C@@H](CC(C)C)C(=O)N[C@@H](CC(C)C)C(N)=O)[C@@H](C)CC)[C@@H](C)CC` [ILPILSLIGGLL], the MIC in the test on Bacillus cereus AS1.126 is ≥ 62.5 µM; against Bacillus cereus it was ≥ 41 µM; in test [20], ≥ 50 µM; in test [21] it was ≥ 250 µM; in [22], ≥ 125 µM; in test [23], ≥ 125 µM. Further, the MIC against Escherichia coli AS1.349 is ≥ 125 µM; in [24], ≥ 100 µM; in the test on Escherichia coli, > 100 µM; in [25], ≥ 75 µM; in [26] it was ≥ 250 µM; in [27], ≥ 175 µM. The MIC is ≥ 37.5 µM in test [28]; ≥ 62.5 µM in test [29]; ≥ 41 µM against Lactococcus lactis; ≥ 125 µM in test [30]; ≥ 62.5 µM in test [31]; ≥ 100 µM in test [32]. Also, the MIC was 41 µM (≈ 50 µg/mL) against Staphylococcus aureus, ≥ 50 µM in [33], ≥ 75 µM in test [34] and ≥ 37.5 µM in test [35].
In the case of `CC[C@H](C)[C@H](NC(=O)[C@H](CC(N)=O)NC(=O)[C@H](CO)NC(=O)[C@H](CC(C)C)NC(=O)[C@H](C)NC(=O)CNC(=O)[C@H](Cc1ccccc1)NC(=O)[C@H](CC(C)C)NC(=O)[C@H](CO)NC(=O)[C@@H]1CCCN1C(=O)[C@@H](NC(=O)[C@H](CC(C)C)NC(=O)[C@H](CCCCN)NC(=O)[C@@H](NC(=O)[C@H](CC(C)C)NC(=O)[C@H](Cc1ccccc1)NC(=O)CNC(=O)[C@H](Cc1ccccc1)NC(=O)[C@@H](N)CC(C)C)[C@@H](C)CC)[C@@H](C)CC)C(=O)NCC(=O)N[C@@H](CCCN=C(N)N)C(=O)N[C@@H](CC(N)=O)C(=O)N[C@@H](CCCN=C(N)N)C(=O)N[C@@H](CC(N)=O)C(=O)N[C@@H](CCC(N)=O)C(=O)O` [LFGFLIKLIPSLFGALSNIGRNRNQ], the MIC in [36] worked out at 17.9 µM (≈ 50 µg/mL); in [37], 8.96 µM (≈ 25 µg/mL); in test [38], 17.9 µM (≈ 50 µg/mL); in test [39] it was 4.48 µM (≈ 12.5 µg/mL); in the test on Salmonella typhimurium it was 17.9 µM (≈ 50 µg/mL); in test [40] it was 4.48 µM (≈ 12.5 µg/mL). The figures for the MIC in test [41], in test [42] and in [43] were 2.24 µM (≈ 6.25 µg/mL), 17.9 µM (≈ 50 µg/mL) and 8.96 µM (≈ 25 µg/mL), respectively.
Take `CC[C@H](C)[C@H](NC(=O)[C@@H](NC(=O)[C@@H](N)CO)C(C)C)C(=O)NCC(=O)N[C@H]1CSSC[C@@H](C(=O)N[C@@H](Cc2ccccc2)C(=O)N[C@H](C(=O)N[C@@H](CCCCN)C(N)=O)C(C)C)NC(=O)[C@@H]2CCCN2C(=O)[C@H](CCCN=C(N)N)NC(=O)[C@@H]2CCCN2C(=O)[C@@H]2CCCN2C(=O)[C@H]([C@@H](C)CC)NC(=O)[C@H](CO)NC(=O)[C@H](Cc2ccccc2)NC(=O)[C@H]([C@@H](C)O)NC(=O)[C@H](Cc2c[nH]c3ccccc23)NC1=O` [SVIGCWTFSIPPRPCFVK]: the MIC in [44] and in test [45] was ≥ 491 µM in each case.
